The results in this text go back to patent US20220260552A1, “Methods to determine the effect of an agent on mammalian embryonic development” (Toxys B.V., priority 2019, published 2022).

The test system of series [1] is mES cells differentiated towards cardiomyocytes. The experiment in a line: mES cell differentiation towards cardiomyocytes, beating embryoid bodies counted. It counts as cell-based, mouse. Particulars: after 13 days of differentiation; FIG. 5B. An excerpt:
FIG. 5: Defective cardiomyocyte differentiation upon teratogenic compound exposure. mES cells were exposed to teratogenic compounds during mES cell differentiation towards cardiomyocytes. The percentage of beating 3D embryoid bodies (examples in A), representing functional cardiomyocytes, was counted. (B) Quantification of beating bodies. Presented values are expressed as percentages of control. Students t-test was used to determine significance. *p<0.05, **p<0.01, ***p<0.001.
For cardiomyocyte differentiation embryonic bodies were used, formed by hanging drops containing 750 cells in Iscoves's Modified Dulbecco's Medium (IMDM). Prior to hanging drop formation, cells were cultured on gelatine-coated dishes in IMDM supplemented with 20% FBS. Cells were detached with cell dissociation buffer (Gibco). After 3 days, embryonic bodies were transferred to a bacterial plate in differentiation medium (IMDM, 10% serum (unless specified otherwise), PS, NEAA and 2-mercapto ethanol). On day 5, the bodies were transferred to a 48-well plate in differentiation medium containing 2% serum, BMP, Activin A, Chir99021 and Xav939. On day 7 embryonic bodies were exposed to only Xav939 in differentiation medium and on day 11 all growth factors were removed and replaced with differentiation medium. Day 13 was used as endpoint for cardiomyocyte differentiation. On this day, beating bodies were quantified and RNA samples collected.

Series [2] deals with GFP-Ck18 mES reporter cells. Nature of the series: mES GFP-Ck18 reporter cell differentiation towards hepatocytes, GFP fluorescence intensity. Particulars: after 21 days of differentiation; normalized to DAPI; FIG. 8. It counts as cell-based, mouse. On the procedure: FIG. 8: Defective hepatocyte differentiation upon teratogenic compound exposure. mES GFP-Ck18 reporter cells were exposed to different teratogenic compounds during mES cell differentiation towards hepatocytes. After 21 days, fluorescence intensity of the hepatocyte specific GFP-Ck18 reporter was measured using microscopy and quantified using Fiji image processing software. GFP intensity was normalized to nuclear intensity measured using DAPI. Presented values are expressed as percentages of control. Student t-test was used for determination of significance. *p<0.05 **p<0.01.*** p<0.001.
Hepatocyte differentiation was started from a monolayer of mES cells on day −1. On day 0, differentiation medium supplemented with Activin A was added. On day 4, the medium was replaced with liver differentiation medium (DMEM containing 10% serum, PS, NEAA and 2-mercaptoethanol) with aFGF and sodium butyrate. On day 9, the medium was replaced with liver differentiation medium containing HGF. On day 14, cells were exposed to liver differentiation medium containing Dexamethasone and Oncostatin M. From day 17 onwards, liver differentiation medium was refreshed every 3-4 days. Endpoint of differentiation was set on day 21.
mES cells were seeded on gelatin-coated culture dishes 24 h prior to transfection. […] GFP expression in differentiated cells was determined by flow cytometry.

Series [3] deals with hiPSC cells differentiated towards hepatocytes. Nature of the series: hiPSC differentiation towards hepatocytes in presence of compound, biomarker expression by qPCR. It counts as cell-based, human. On the procedure:
The hepatocyte differentiation protocol is based on (Chen et al., 2012, which is incorporated herein by reference). In brief, hiPSC cells were seeded on day −4 in mTESR medium on Matrigel. On day 0 the mTESR medium was replaced with RPMI medium containing B27, Activin A, Chir99021, HGF and PS. On day 3, the cells were refreshed with DMEM medium containing KO serum replacement, Glutamax, NEAA, 2-mercaptoethanol, DMSO and PS. On day 7, the medium was replaced with IMDM medium containing oncostatin M, dexamethasone, ITS, Glutamax, NEAA and PS. On day 10, 14 and 17, cells are refreshed with IMDM medium containing ITS, Glutamax, NEAA and PS. RNA samples were collected on day 0, day 7 and day 21 of differentiation.
(§1) To assess the effect of potential teratogenic agents, hiPSC were treated with the test material from day 0 until the end of differentiation. When differentiation medium was refreshed, fresh compound was added.
(§2) Induction of the biomarker expression was compared with the expression of the gene in undifferentiated cells using quantitative real-time PCR (qRT-PCR). At several time points during differentiation, total RNA was isolated using Trizol […]. Complementary DNA was synthesized using oligo(dT) primers and SuperScript […] ReverseTranscriptase (Invitrogen) according to the manufacturer's protocol. Expression of biomarker genes was determined using specific primers (SEQ ID NOs: 68-99, 105 and 106) spanning the exon-exon boundaries of the genes with the PowerUP SYBR Green Master Mix (Applied Biosystems) on a Quantstudio 5 Real-Time PCR System (Applied Biosystems) using ROX as a passive reference. Relative expression was normalized using expression of the GAPDH and HPRT genes.

Series [4] has as its system hiPSC cells differentiated towards cardiomyocytes. Nature of the series: hiPSC differentiation towards cardiomyocytes in presence of compound, biomarker expression by qPCR. The series is classed as cell-based, human.
Experimental: Briefly, on day −4, hiPSC cells were seeded in 24-well plates in mTESR medium on Matrigel. On day 0, the medium was replaced with BEL medium (IMDM, HF12 medium, PFHMII medium, BSA, ITS-X, CD lipids, α-Monothioglycerol, Glutamax, PS and ascorbic acid) containing BMP4, Activin A and Chir99021. At day 3 of differentiation, the medium was refreshed with BEL containing Xav939. On day 7 and 10 of differentiation, the medium was replaced with BEL without growth factors. RNA samples were collected on day 0, day 7 and day 14 of differentiation.
Induction of the biomarker expression was compared with the expression of the gene in undifferentiated cells using quantitative real-time PCR (qRT-PCR). At several time points during differentiation, total RNA was isolated using Trizol (Qiagen). Complementary DNA was synthesized using oligo(dT) primers and SuperScript VI ReverseTranscriptase (Invitrogen) according to the manufacturer's protocol. […] Relative expression was normalized using expression of the GAPDH and HPRT genes.
Series [5] relates to hiPSC cells differentiated towards neural rosettes. The experiment in a line: hiPSC differentiation towards neural rosettes in presence of compound, biomarker expression by qPCR. As to conditions: compound added during differentiation, day 0 until end, FIG. 2. The series is classed as cell-based, human. On the procedure: The protocol for neural differentiation is based on (Lippmann, Estevez-Silva, & Ashton, 2014, which is incorporated herein by reference). In short, hiPSC were seeded in mTESR medium on Matrigel on day −1. On day 0, medium was replaced with E6 medium with PS to start differentiation. Medium was refreshed with E6 medium on Day 3 and 7. RNA samples were collected on day 0, day 7 and day 10.
as §1, §2
(Quantitative PCR measures a nucleic acid by following its amplification.)

Regarding `O=c1[nH]cc(F)c(=O)[nH]1` [5′fluoracil, 5-fluorouracil], the “beating cardiomyocytes (beating embryoid bodies)” value (“beating cardiomyocytes” below) in series [1] is listed as “decrease”. Also, the GFP-Ck18 intensity entry in series [2] is recorded as “significantly reduced”.
Turning to `C=CC(N)=O` [acrylamide], the “biomarker expression during hepatocyte differentiation” value in series [3] (compound present during differentiation, qPCR, T-test vs vehicle control, FIG. 3) was “no significant reduction”.
For the compound `O=C1NC(=O)C(c2ccccc2)(c2ccccc2)N1` [diphenylhydantoin], the “beating cardiomyocytes” value in series [1] is on record as “decrease”.
With `CC1=C(/C=C/C(C)=C/C=C/C(C)=C/C(=O)O)C(C)(C)CCC1` [retinoic acid, All-trans retinoic acid], in series [1], the “beating cardiomyocytes” value is reported as “decrease”. In series [2], the GFP-Ck18 intensity result is recorded as “significantly reduced”. In series [3], the “Expression of AFP in hepatocytes” value is recorded as “reduced” and the “Expression of ALB in hepatocytes” value is “reduced”. Besides, the “Expression of MYH6 in cardiomyocytes” value in series [4] is listed as “reduced”. For the same compound, the “Expression of PAX6 in neural rosettes” value in series [5] was “reduced”.
